Numbered stars: 1 amine (or outer) side, 2 acyl side, 3 side chain; on linkers, the order of the positions; unused ones are H or OH. Square brackets hold non-standard residues; d marks the D form. Peptide text beside a SMILES is read from it. * marks the point of attachment. DOTA(Lu) = O=C1CN2CCN3CCN(CC(=O)*)CCN(CC2)CC(=O)[O][Lu]([O]1)[O]C(=O)C3; DOTA = O=C(O)CN1CCN(CC(=O)O)CCN(CC(=O)*)CCN(CC(=O)O)CC1; Gly(N-(3-F-4-Me-benzyl)) = Cc1ccc(CNCC(=O)*)cc1F; X16 = O=C(c1ccc(-c2ccccc2)c(OCCCN[*:1])c1)[*:2]; Api(1-amidino) = N=C(N)N1CCC(N)(C(=O)O)CC1; HO(CH2CH2O)2CH2CH2CO = O=C(CCOCCOCCO)*; 2Nal = N[C@@H](Cc1ccc2ccccc2c1)C(=O)O; d2Nal = N[C@H](Cc1ccc2ccccc2c1)C(=O)O; Trx = NC[C@H]1CC[C@H](C(=O)O)CC1; X1 = O=C(CN1CCC(N[*:1])CC1)[*:2]; dCya = N[C@H](CS(=O)(=O)O)C(=O)O; 4Pal = N[C@@H](Cc1ccncc1)C(=O)O; Cha = N[C@@H](CC1CCCCC1)C(=O)O; Octanoyl = CCCCCCCC(=O)*; Api = NC1(C(=O)O)CCNCC1; AEEA = NCCOCCOCC(=O)O; Ahx = NCCCCCC(=O)O; azaGly = NNC(=O)O; βAla = NCCC(=O)O; Sar = CNCC(=O)O
target: human kisspeptin receptor (Homo sapiens (Human), UniProt Q969F8); experiment: Human KISS1R binding assay (membrane competition binding); settings: not given
Procedure: Crude membrane fractions are prepared from Flp-In T-Rex 293 (Thermo Fisher) cell line expressing the human kisspeptin receptor. The cells are grown to 85-100% confluence on standard tissue culture dishes in Dulbecco's Modified Eagles Medium (DMEM) (Corning) supplemented with 10% FBS (Gemini), 1% penicillin-streptomycin-glutamine (Gibco), 500 μg/mL hygromycin, and 15 μg/mL blastacidin. 48 hrs prior to preparing membranes 10 μg/ml of tetracycline is added to the culture media to induce receptor expression. To prepare membranes, cells are scraped and collected in 1× Dulbecco's phosphate buffered saline (Corning) and then pelleted at 1000 RPMs. The cell pellet is reconstituted in membrane preparation buffer (20 mM HEPES, 6 mM MgCl2 and 1 mM EGTA, protease inhibitor tablets (Pierce), pH 7.4) and placed in a cell disruption vessel (Parr Instrument company) at 1000 PSI for 30 min on ice. The pressurized contents are then released and spun down at 1000 RPMs and the supernatant is collected and further centrifuged at 15,000 RPMs to pellet the membranes. The membrane pellet is resuspended in membrane preparation buffer, snap frozen and stored at −80° C. for later use.
The human kisspeptin membrane binding assay utilizes the following components: radiolabel [^125I]-metastin (45-54) (human) (Perkinhmer), crude Flp-In T-Rex 293 kisspeptin membranes, and competing small molecule and peptide ligands. The assay is initiated by combining in assay buffer (50 mM TrisHCl, 5 mM MgCl2, 2 mM EGTA, 10 mM CaCl2, 0.1% BSA, pH 7.4) a dose response of competing ligand (final concentrations are typically 0-10,000 nM), 5-10 μg of Flp-In T-Rex 293 kisspeptin membranes, and 0.2 n M [^125I]-metastin (45-54) in a 96-well assay plate and allowed to incubate 90 minutes at room temperature. Assay contents are then filtered through unifilter CF/C: microplates (PerkinElmer) pre-soaked with 0.5% BSA and washed with 9×400 μL of cold wash buffer (10 mM HEPES, 500 mM NaCl, 0.1% Tween-20, pH7.4). Assay plates are read using a Microbeta^2 (PerkinElmer) and Ki values for compounds are determined using a GraphPad Prism 9.3 non-linear regression analysis.

Sequence of human kisspeptin receptor (Q969F8 whole entry): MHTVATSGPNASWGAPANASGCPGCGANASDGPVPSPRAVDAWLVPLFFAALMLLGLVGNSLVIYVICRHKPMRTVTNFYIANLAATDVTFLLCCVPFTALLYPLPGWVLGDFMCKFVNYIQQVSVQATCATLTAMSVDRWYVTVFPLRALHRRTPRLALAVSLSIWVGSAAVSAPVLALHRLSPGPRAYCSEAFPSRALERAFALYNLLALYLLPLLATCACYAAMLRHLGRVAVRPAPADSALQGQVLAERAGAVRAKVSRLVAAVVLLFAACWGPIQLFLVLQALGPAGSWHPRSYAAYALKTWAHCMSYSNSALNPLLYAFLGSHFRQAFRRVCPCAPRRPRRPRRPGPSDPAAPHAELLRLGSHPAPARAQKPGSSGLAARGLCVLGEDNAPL

| Structure (SMILES) | Ki [nM] |
| --- | --- |
| Cc1ccc(CNCC(=O)N2CCC(NC(=O)[C@H](CC(C)C)NC(=O)NNC(=O)[C@H](Cc3ccccc3)NC(=O)[C@@H](NC(=O)[C@H](CC(N)=O)NC(=O)[C@H](Cc3ccc4ccccc4c3)NC(=O)[C@@H](Cc3ccc(O)cc3)NC(=O)CCCCCNC(=O)CN3CCN4CCN5CCN(CC3)CC(=O)[O][Lu]([O]C(=O)C4)[O]C(=O)C5)[C@@H](C)O)(C(=O)N[C@@H](Cc3c[nH]c4ccccc34)C(N)=O)CC2)cc1F [Compound 118-Lu] ({DOTA(Lu)-Ahx}-[dY][2Nal]NTF[azaGly]L[Api](Gly(N-(3-F-4-Me-benzyl)))W-NH2) | < 10 |

same assay, conditions: 90 min at room temperature; competition with 0.2 nM [125I]-metastin (45-54); Flp-In T-Rex 293 kisspeptin membranes; metal complexes nonradioactive Ga, In, Lu; read-out: hKiSSR Binding Ki (90 min)

| Structure (SMILES) | Ki [nM] |
| --- | --- |
| Cc1ccc(CNCC(=O)N2CCC(NC(=O)[C@H](CC(C)C)NC(=O)NNC(=O)[C@H](Cc3ccccc3)NC(=O)[C@@H](CC(N)=O)NC(=O)[C@@H](CC(N)=O)NC(=O)[C@@H](CC(N)=O)NC(=O)[C@@H](CC(N)=O)NC(=O)[C@@H](CC(N)=O)NC(=O)CCNC(=O)CN3CCN(CC(=O)O)CCN(CC(=O)O)CCN(CC(=O)O)CC3)(C(=O)N[C@@H](Cc3c[nH]c4ccccc34)C(N)=O)CC2)cc1F [Compound 14] ({DOTA-βAla}-[dN][dN][dN][dN][dN]F[azaGly]L[Api](Gly(N-(3-F-4-Me-benzyl)))W-NH2) | 10 to 100 |
| Cc1ccc(CNCC(=O)N2CCC(NC(=O)[C@H](CC(C)C)NC(=O)NNC(=O)c3ccc(-c4ccccc4)c(OCCCNC(=O)CN4CCC(NC(=O)CN5CCN(CC(=O)O)CCN(CC(=O)O)CCN(CC(=O)O)CC5)CC4)c3)(C(=O)N[C@@H](Cc3c[nH]c4ccccc34)C(N)=O)CC2)cc1F [Compound 216] ({DOTA}-[X1][X16][azaGly]L[Api](Gly(N-(3-F-4-Me-benzyl)))W-NH2) | < 10 |
| Cc1ccc(CNCC(=O)N2CCC(NC(=O)[C@H](CC(C)C)NC(=O)NNC(=O)[C@H](Cc3ccccc3)NC(=O)[C@@H](NC(=O)[C@H](CC(N)=O)NC(=O)[C@@H](CCCCNC(=O)CN3CCN(CC(=O)O)CCN(CC(=O)O)CCN(CC(=O)O)CC3)NC(=O)CCOCCOCCO)[C@@H](C)O)(C(=O)N[C@@H](Cc3ccncc3)C(N)=O)CC2)cc1F [Compound 254] ({HO(CH2CH2O)2CH2CH2CO}-[dK](DOTA)NTF[azaGly]L[Api](Gly(N-(3-F-4-Me-benzyl)))[4Pal]-NH2) | < 10 |
| Cc1ccc(CNCC(=O)N2CCC(NC(=O)[C@H](CC(C)C)NC(=O)NNC(=O)[C@H](Cc3ccccc3)NC(=O)CCCCCNC(=O)CN3CCN(CC(=O)O)CCN(CC(=O)O)CCN(CC(=O)O)CC3)(C(=O)N[C@@H](Cc3c[nH]c4ccccc34)C(N)=O)CC2)cc1F [Compound 2] ({DOTA-Ahx}-F[azaGly]L[Api](Gly(N-(3-F-4-Me-benzyl)))W-NH2) | < 10 |
| Cc1ccc(CNCC(=O)N2CCC(NC(=O)[C@H](CC(C)C)NC(=O)NNC(=O)[C@H](Cc3ccccc3)NC(=O)[C@@H](NC(=O)[C@H](CC(N)=O)NC(=O)CN3CCC(NC(=O)CN4CCN(CC(=O)O)CCN(CC(=O)O)CCN(CC(=O)O)CC4)CC3)[C@@H](C)O)(C(=O)N[C@@H](Cc3ccc(O)cc3)C(N)=O)CC2)cc1F [Compound 249] ({DOTA}-[X1]NTF[azaGly]L[Api](Gly(N-(3-F-4-Me-benzyl)))Y-NH2) | < 10 |
| Cc1ccc(CNCC(=O)N2CCC(NC(=O)[C@H](CC(C)C)NC(=O)NNC(=O)[C@H](Cc3ccccc3)NC(=O)CCCCCNC(=O)[C@H](Cc3ccc(O)cc3)NC(=O)CNC(=O)CN3CCN(CC(=O)O)CCN(CC(=O)O)CCN(CC(=O)O)CC3)(C(=O)N[C@@H](Cc3c[nH]c4ccccc34)C(N)=O)CC2)cc1F [Compound 305] ({DOTA}-GY[Ahx]F[azaGly]L[Api](Gly(N-(3-F-4-Me-benzyl)))W-NH2) | < 10 |
| CCCCCCCC(=O)N[C@@H](CCCCNC(=O)CN1CCN(CC(=O)O)CCN(CC(=O)O)CCN(CC(=O)O)CC1)C(=O)N[C@@H](CC(N)=O)C(=O)N[C@H](C(=O)N[C@@H](Cc1ccccc1)C(=O)NNC(=O)N[C@@H](CC(C)C)C(=O)NC1(C(=O)N[C@@H](Cc2ccncc2)C(N)=O)CCN(C(=N)N)CC1)[C@@H](C)O [Compound 226] (Octanoyl-K(DOTA)NTF[azaGly]L[Api(1-amidino)][4Pal]-NH2) | 10 to 100 |
| CNCC(=O)N1CCC(NC(=O)[C@H](CC(C)C)NC(=O)NNC(=O)[C@H](Cc2ccccc2)NC(=O)[C@@H](NC(=O)[C@H](CC(N)=O)NC(=O)[C@@H](Cc2ccc3ccccc3c2)NC(=O)[C@H](N)Cc2ccc(O)cc2)[C@@H](C)O)(C(=O)N[C@@H](Cc2ccc(O)cc2)C(N)=O)CC1 [Compound 407] (H-[dY][d2Nal]NTF[azaGly]L[Api](Sar)Y-NH2) | < 10 |

More lines, now with the values ahead:

| Ki [nM] | Structure (SMILES) |
| --- | --- |
| < 10 | Cc1ccc(CNCC(=O)N2CCC(NC(=O)[C@H](CC(C)C)NC(=O)NNC(=O)[C@H](Cc3ccccc3)NC(=O)[C@@H](NC(=O)[C@H](CC(N)=O)NC(=O)[C@@H](Cc3c[nH]c4ccccc34)NC(=O)[C@@H](Cc3ccc(O)cc3)NC(=O)COCCOCCNC(=O)CN3CCN(CC(=O)O)CCN(CC(=O)O)CCN(CC(=O)O)CC3)[C@@H](C)O)(C(=O)N[C@@H](Cc3c[nH]c4ccccc34)C(N)=O)CC2)cc1F [Compound 57] ({DOTA-AEEA}-[dY][dW]NTF[azaGly]L[Api](Gly(N-(3-F-4-Me-benzyl)))W-NH2) |
| 10 to 100 | Cc1ccc(CNCC(=O)N2CCC(NC(=O)[C@H](CC(C)C)NC(=O)NNC(=O)[C@H](Cc3ccccc3)NC(=O)CCCCCNC(=O)CN3CCN(CC(=O)O)CCN(CC(=O)O)CCN(CC(=O)O)CC3)(C(=O)N[C@@H](CC3CCCCC3)C(N)=O)CC2)cc1F [Compound 141] ({DOTA-Ahx}-F[azaGly]L[Api](Gly(N-(3-F-4-Me-benzyl)))[Cha]-NH2) |
| < 10 | Cc1ccc(CNCC(=O)N2CCC(NC(=O)[C@H](CC(C)C)NC(=O)NNC(=O)[C@H](Cc3ccccc3)NC(=O)[C@H]3CC[C@H](CNC(=O)CN4CCN(CC(=O)O)CCN(CC(=O)O)CCN(CC(=O)O)CC4)CC3)(C(=O)N[C@@H](Cc3c[nH]c4ccccc34)C(N)=O)CC2)cc1F [Compound 192] ({DOTA-Trx}-F[azaGly]L[Api](Gly(N-(3-F-4-Me-benzyl)))W-NH2) |
| > 100 | Cc1ccc(CNCC(=O)N2CCC(NC(=O)[C@H](CC(C)C)N[C@H](CNC(=O)[C@H](Cc3ccccc3)NC(=O)CCCCCNC(=O)CN3CCN(CC(=O)O)CCN(CC(=O)O)CCN(CC(=O)O)CC3)C(F)(F)F)(C(=O)N[C@@H](Cc3c[nH]c4ccccc34)C(N)=O)CC2)cc1F [Compound 147] |
| < 10 | Cc1ccc(CNCC(=O)N2CCC(NC(=O)[C@H](CC(C)C)NC(=O)NNC(=O)[C@H](Cc3ccccc3)NC(=O)[C@@H](NC(=O)[C@H](CC(N)=O)NC(=O)[C@@H](Cc3c[nH]c4ccccc34)NC(=O)[C@@H](Cc3ccc(O)cc3)NC(=O)CCCCCNC(=O)[C@@H](CS(=O)(=O)O)NC(=O)[C@@H](CS(=O)(=O)O)NC(=O)CN3CCN(CC(=O)O)CCN(CC(=O)O)CCN(CC(=O)O)CC3)[C@@H](C)O)(C(=O)N[C@@H](Cc3c[nH]c4ccccc34)C(N)=O)CC2)cc1F [Compound 120] ({DOTA}-[dCya][dCya][Ahx][dY][dW]NTF[azaGly]L[Api](Gly(N-(3-F-4-Me-benzyl)))W-NH2) |
| < 10 | Cc1ccc(CNCC(=O)N2CCC(NC(=O)[C@H](CC(C)C)NC(=O)NNC(=O)[C@H](Cc3ccccc3)NC(=O)[C@@H](NC(=O)[C@H](CC(N)=O)NC(=O)[C@@H](Cc3c[nH]c4ccccc34)NC(=O)CCCCCNC(=O)CN3CCN(CC(=O)O)CCN(CC(=O)O)CCN(CC(=O)O)CC3)[C@@H](C)O)(C(=O)N[C@@H](Cc3ccncc3)C(N)=O)CC2)cc1F [Compound 290] ({DOTA-Ahx}-[dW]NTF[azaGly]L[Api](Gly(N-(3-F-4-Me-benzyl)))[4Pal]-NH2) |

From patent publication US20250312499A1, “KISSPEPTIN RECEPTOR (KISS1R) TARGETED THERAPEUTICS AND USES THEREOF” (priority 2024, published 2025)
